# Measured values published in patent US20250223307A1, “MDM2/MDMX DOUBLE-TARGET INHIBITOR COMPOUND, PRODRUG, PHARMACEUTICAL COMPOSITION, AND PREPARATION METHOD THEREFOR AND USE THEREOF” (GLOBAL HEALTH DRUG DISCOVERY INSTITUTE, priority 2022, published 2025).
# Columns and labels:
# [1] = test system: Blood cancer cells RS4; 11; assay: CellTiter Glo test: growth inhibition of cells; type: cell-based; conditions: Homo sapiens, 11 cells, 72 h, cell viability
# Protocol: Test of Candidate Compounds on Growth Inhibition of Cells Determined by CellTiter Glo
# Blood cancer cells RS4; 11 were inoculated into the 96-well cell culture plate through Multidrop 3000 cells per well, with a volume of 100 μL. The final compound concentration ranged from 50 μM to 0.01 μM at 9 concentration gradients and the DMSO final concentration was 0.1%. The cells and compounds were co-incubated in a cell incubator at 37° C. for 72 h, a CellTiter-Glo Luminescent Cell Viability Assay reagent was added 100 μL/well, the cells and compound were uniformly mixed and incubated at room temperature for 10 min, and Envision reading was performed. A sample treated with 50 μM of a positive compound was taken as a positive control and a sample treated with 100 nL of DMSO was taken as a negative control.
# [2] = target: T1, MDMX (Homo sapiens, UniProt O15151); assay: HTRF test: inhibition of MDMX-p53 protein binding
# T1 sequence (O15151 2-134): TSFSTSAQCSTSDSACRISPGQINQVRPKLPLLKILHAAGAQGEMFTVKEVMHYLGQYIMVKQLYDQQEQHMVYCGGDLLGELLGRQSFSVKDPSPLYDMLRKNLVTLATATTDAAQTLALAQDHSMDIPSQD
# [3] = target: MDM2 (Homo sapiens, UniProt Q00987); assay: HTRF test: inhibition of MDM2-p53 protein binding
# Sequence of MDM2 (Q00987 2-138): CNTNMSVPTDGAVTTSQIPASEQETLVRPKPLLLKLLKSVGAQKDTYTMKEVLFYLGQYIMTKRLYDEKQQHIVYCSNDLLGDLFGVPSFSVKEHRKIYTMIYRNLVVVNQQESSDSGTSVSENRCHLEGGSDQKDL
Structure (SMILES),IC50 [1] [nM],IC50 [2] [nM],IC50 [3] [nM]
"N#Cc1ccc(C(C=O)N2C(=O)N/C(=C\c3c[nH]c4c(F)c(Cl)ccc34)C2=O)cc1F (stereo not drawn) [Compound 33, (Z)-4-(1-(4-((6-chloro-7-fluoro-1H-indol-3-yl)methylene)-2,5-dioxoimidazolidin-1-yl)-2-oxyethyl)-2-fluorobenzonitrile]",1000 to 10000,10 to 100,10 to 100
"N#Cc1ccc(CN2C(=O)N/C(=C\c3c[nH]c4c(F)c(Cl)ccc34)C2=O)c(F)c1F [Compound 34, 4-{[(4Z)-4-[(6-chloro-7-fluoro-1H-indol-3-yl)methylene]-2,5-dioxoimidazolidin-1-yl]methyl}-2,3-difluorobenzonitrile]",≤ 1000,10 to 100,< 10
N#Cc1c(F)cc(CN2C(=O)N/C(=C\c3c[nH]c4c(F)c(Cl)ccc34)C2=O)cc1F [Compound 35],≤ 1000,10 to 100,10 to 100
"N#Cc1cc(F)c(CN2C(=O)N/C(=C\c3c[nH]c4c(F)c(Cl)ccc34)C2=O)cc1F [Compound 36, 4-{[(4Z)-4-[(6-chloro-7-fluoro-1H-indol-3-yl)methylene]-2,5-dioxoimidazolidin-1-yl]methyl}-2,5-difluorobenzonitrile]",≤ 1000,10 to 100,< 10
"N#Cc1ccc(C(CO)N2C(=O)N/C(=C\c3c[nH]c4c(F)c(Cl)ccc34)C2=O)cc1F (stereo not drawn) [Compound 37, (Z)-4-(1-(4-((6-chloro-7-fluoro-1H-indol-3-yl)methylene)-2,5-dioxoimidazolidin-1-yl)-2-hydroxyethyl)-2-fluorobenzonitrile]",≤ 1000,10 to 100,10 to 100
"O=C1N/C(=C\c2c[nH]c3cc(Cl)ccc23)C(=O)N1[C@H](CO)c1ccc(F)c(F)c1 [Compound 53, (S,Z)-5-((6-chloro-1H-indol-3-yl)methylene)-3-(1-(3,4-difluorophenyl)-2-hydroxyethyl)imidazolidine-2,4-dione]",1000 to 10000,< 10,< 10
"O=C1N/C(=C\c2c[nH]c3cc(Cl)ccc23)C(=O)N1[C@@H](CO)c1ccc(F)c(F)c1 [Compound 54, (R,Z)-5-((6-chloro-1H-indol-3-yl)methylene)-3-(1-(3,4-difluorophenyl)-2-hydroxyethyl)imidazolidine-2,4-dione]",≤ 1000,10 to 100,10 to 100
"N#Cc1ccc(C(C(=O)NCCO)N2C(=O)N/C(=C\c3cn(P(=O)(O)O)c4c(F)c(Cl)ccc34)C2=O)cc1F (stereo not drawn) [Compound 56, (Z)-(6-chloro-3-((1-(1-(4-cyano-3-fluorophenyl)-2-((2-hydroxyethyl)amino)-2-oxyethyl)-2,5-dioxoimidazolidin-4-ylene)methyl)-7-fluoro-1H-indol-1-yl)phosphonic acid]",1000 to 10000,10 to 100,10 to 100
"Cc1c(Cl)ccc2c(/C=C3\NC(=O)N(C(C(=O)NC45CC(O)(C4)C5)c4ccc(F)c(F)c4)C3=O)c[nH]c12 (stereo not drawn) [Compound 57, (Z)-2-(4-((6-chloro-7-methyl-1H-indol-3-yl)methylene)-2,5-dioxoimidazolidin-1-yl)-2-(3,4-difluorophenyl)-N-(3-hydroxylbicyclo[1.1.1]pentan-1-yl)acetamide]",≤ 1000,< 10,< 10
"Cc1c(Cl)ccc2c(/C=C3\NC(=O)N(C(C(=O)NCC45CCC(O)(CC4)CC5)c4ccc(F)c(F)c4)C3=O)c[nH]c12 (stereo not drawn) [Compound 64, (Z)-2-(4-((6-chloro-7-methyl-1H-indol-3-yl)methylene)-2,5-dioxoimidazolidin-1-yl)-2-(3,4-difluorophenyl)-N-((4-hydroxylbicyclo[2.2.2]octan-1-yl)methyl)acetamide]",≤ 1000,< 10,< 10
"Cc1c(Cl)ccc2c(/C=C3\NC(=O)N(C(C(=O)NC45CCC(O)(CC4)CC5)c4ccc(F)c(F)c4)C3=O)c[nH]c12 (stereo not drawn) [Compound 66, (Z)-2-(4-((6-chloro-7-methyl-1H-indol-3-yl)methylene)-2,5-dioxoimidazolidin-1-yl)-2-(3,4-difluorophenyl)-N-(4-hydroxylbicyclo[2.2.2]octan-1-yl)acetamide]",≤ 1000,< 10,< 10

# Continued, values first:
IC50 [1] [nM],IC50 [2] [nM],IC50 [3] [nM],Structure (SMILES)
1000 to 10000,10 to 100,10 to 100,"N#Cc1ccc(C(C(=O)NC(CO)CO)N2C(=O)N/C(=C\c3c[nH]c4cc(Cl)ccc34)C2=O)cc1 (stereo not drawn) [Compound 31, (Z)-2-(4-((6-chloro-1H-indol-3-yl)methylene)-2,5-dioxoimidazolidin-1-yl)-2-(4-cyanophenyl)-N-(1,3-dihydroxypropan-2-yl)acetamide]"
1000 to 10000,< 10,< 10,"Cc1c(Cl)ccc2c(/C=C3\NC(=O)N(C(C(=O)NC(CO)CO)c4ccc(C#N)cc4)C3=O)c[nH]c12 (stereo not drawn) [Compound 32, (Z)-2-(4-((6-chloro-7-methyl-1H-indol-3-yl)methylene)-2,5-dioxoimidazolidin-1-yl)-2-(4-cyanophenyl)-N-(1,3-dihydroxypropan-2-yl)acetamide]"
≤ 1000,< 10,< 10,"N#Cc1ccc(C(C(=O)NCCO)N2C(=O)N/C(=C\c3c[nH]c4c(F)c(Cl)ccc34)C2=O)cc1F (stereo not drawn) [Compound 41, (Z)-2-(4-((6-chloro-7-fluoro-1H-indol-3-yl)methylene)-2,5-dioxoimidazolidin-1-yl)-2-(4-cyano-3-fluorophenyl)-N-(2-hydroxyethyl)acetamide]"
≤ 1000,10 to 100,10 to 100,"O=C1N/C(=C\c2c[nH]c3cc(Cl)ccc23)C(=O)N1C(CO)c1ccc(Cl)cc1 (stereo not drawn) [Compound 45, (Z)-5-((6-chloro-1H-indol-3-yl)methylene)-3-(1-(4-chlorophenyl)-2-hydroxyethyl)imidazolidine-2,4-dione]"
≤ 1000,< 10,< 10,"Cc1c(Cl)ccc2c(/C=C3\NC(=O)N(C(C(=O)NCCO)c4ccc(Cl)cc4)C3=O)c[nH]c12 (stereo not drawn) [Compound 48, (Z)-2-(4-((6-chloro-7-methyl-1H-indol-3-yl)methylene)-2,5-dioxoimidazolidin-1-yl)-2-(4-chlorophenyl)-N-(2-hydroxyethyl)acetamide]"
≤ 1000,10 to 100,< 10,"N#Cc1ccc([C@H](CO)N2C(=O)N/C(=C\c3c[nH]c4cc(Cl)ccc34)C2=O)cc1 [Compound 49, (R,Z)-4-(1-(4-((6-chloro-1H-indol-3-yl)methylene)-2,5-dioxoimidazolidin-1-yl)-2-hydroxyethyl)benzonitrile]"
≤ 1000,> 100,10 to 100,"N#Cc1ccc([C@@H](CO)N2C(=O)N/C(=C\c3c[nH]c4cc(Cl)ccc34)C2=O)cc1 [Compound 50, (S,Z)-4-(1-(4-((6-chloro-1H-indol-3-yl)methylene)-2,5-dioxoimidazolidin-1-yl)-2-hydroxyethyl)benzonitrile]"
≤ 1000,< 10,< 10,"N#Cc1ccc(C(C(=O)NCCO)N2C(=O)N/C(=C\c3c[nH]c4c(F)c(Cl)ccc34)C2=O)cc1 (stereo not drawn) [Compound 58, (Z)-2-(4-((6-chloro-7-fluoro-1H-indol-3-yl)methylene)-2,5-dioxoimidazolidin-1-yl)-2-(4-cyanophenyl)-N-(2-hydroxyethyl)acetamide]"
≤ 1000,10 to 100,< 10,"O=C(NCCO)C(c1ccc(Cl)cc1)N1C(=O)N/C(=C\c2c[nH]c3c(F)c(Cl)ccc23)C1=O (stereo not drawn) [Compound 59, (Z)-2-(4-((6-chloro-7-fluoro-1H-indol-3-yl)methylene)-2,5-dioxoimidazolidin-1-yl)-2-(4-chlorophenyl)-N-(2-hydroxyethyl)acetamide]"
≤ 1000,< 10,< 10,"Cc1c(Cl)ccc2c(/C=C3\NC(=O)N(C(C(=O)NCCO)c4ccc(C#N)cc4)C3=O)c[nH]c12 (stereo not drawn) [Compound 60, (Z)-2-(4-((6-chloro-7-methyl-1H-indol-3-yl)methylene)-2,5-dioxoimidazolidin-1-yl)-2-(4-cyanophenyl)-N-(2-hydroxyethyl)acetamide]"
1000 to 10000,10 to 100,< 10,"N#Cc1ccc(C(C(=O)NCCO)N2C(=O)N/C(=C\c3c[nH]c4cc(Cl)ccc34)C2=O)cc1 (stereo not drawn) [Compound 61, (Z)-2-(4-((6-chloro-1H-indol-3-yl)methylene)-2,5-dioxoimidazolidin-1-yl)-2-(4-cyanophenyl)-N-(2-hydroxyethyl)acetamide]"
≤ 1000,10 to 100,< 10,"O=C(NCCO)C(c1ccc(Cl)cc1)N1C(=O)N/C(=C\c2c[nH]c3cc(Cl)ccc23)C1=O (stereo not drawn) [Compound 62, (Z)-2-(4-((6-chloro-1H-indol-3-yl)methylene)-2,5-dioxoimidazolidin-1-yl)-2-(4-chlorophenyl)-N-(2-hydroxyethyl)acetamide]"
≤ 1000,< 10,< 10,"Cc1c(Cl)ccc2c(/C=C3\NC(=O)N(C(C(=O)NCCO)c4ccc(C#N)c(F)c4)C3=O)c[nH]c12 (stereo not drawn) [Compound 67, (Z)-2-(4-((6-chloro-7-methyl-1H-indol-3-yl)methylene)-2,5-dioxoimidazolidin-1-yl)-2-(4-cyano-3-fluorophenyl)-N-(2-hydroxyethyl)acetamide]"
